According to article PMC6268135, “Synthesis and 5α-Reductase Inhibitory Activity of C21 Steroids Having 1,4-diene or 4,6-diene 20-ones and 4-Azasteroid 20-Oximes” (Molecules, 2011):
pIC50: −log10 of the molar value. Read-outs that look alike come from different tables or passages of the source.

What was measured:
[1] = target: testosterone 5α-reductase prepared from rat prostates; test: Testosterone 5α-reductase assay ([1,2,6,7-3H]testosterone as substrate);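 also: conversion of tritiated testosterone to 5α-dihydrotestosterone, separated by TLC and scintillation counted, relative to enzyme control without test sample after subtracting substrate blank without enzyme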
Procedure: Since the rat prostate extracts for measuring testosterone 5α-reductase inhibition were used in a neutral pH buffer, both isozymes were assayed in this study due to differences in its biochemical properties.
The enzyme suspension of testosterone 5α-reductase was prepared from the homogenate of the ventral prostate of male Sprague-Dawley rats using the methods previously reported [32]. Testosterone 5α-reductase inhibition was measured according to the methods previously reported [32]. A brief description follows: Sprague-Dawley male rats 7-8 weeks old were sacrificed by diethyl ether, and the ventral prostates were excised and minced with a pair of scissors. The prostates were homogenized with a glass-glass homogenizer in medium A (0.32 M sucrose, 0.1 mM dithiothreitol and 20 mM sodium phosphate, pH 6.5) to about 20% (w/v). The homogenate was filtered over 8 layers of surgical gauze, and centrifuged at 3,000 × g for 15 min. The resulting pellets were resuspended in medium A to about 25% (w/v) by triturating the suspension sequentially through an 18-gauge and then a 20-gauge needle. The assay mixture containing the test sample in ethanol (10 μL), reaction solution [525 μL, 1 mM dithiothreitol, 40 mM sodium phosphate (pH 6.5), 50 µM NADPH and 2.2 mM [1,2,6,7-^3H]testosterone, 3.15-3.89 TBq/mmol, PerkinElmer (Waltham, MA, USA)] and the enzyme suspension prepared above (40 μL), was incubated at 37°C for 1 h. After extraction with ethyl acetate (1 mL), a sample of the ethyl acetate phase (50 μL) was chromatographed on a silica plastic sheet (Kieselgel 60 F254, Merck KGaA (Darmstadt, Germany)) using the developing solvent system ethyl acetate-cyclohexane (1:1). Each of the testosterone and 5α-dihydrotestosterone areas was cut from the sheet. The ^3H radioactivity of each fragment was counted in 5 mL of Aquasol-2 (PerkinElmer) with a liquid scintillation counter [LS 6500, Beckman Coulter (Brea, CA, USA)]. Testosterone 5α-reductase inhibitory activity was calculated as follows:
where DHT and T are the ^3H radioactivity recovered in the areas of 5α-dihydrotestosterone and testosterone, respectively. rsample and rcontrol are reaction rates of the test sample and the enzyme control in which reaction rates are measured in the presence and absence of test sample, respectively, and rblank is reaction rate of the substrate blank in which reaction rate is measured in the absence of test sample and enzyme suspension. IC50 was calculated from the inhibitory activity values at several concentrations using linear regression analysis. Each enzyme reaction was carried out in duplicate.

[2] = read-out: IC50 (5α-reductase inhibitory activity), rat prostatic testosterone 5α-reductase
[3] = read-out: IC50 (testosterone 5α-reductase inhibitory activity), rat ventral prostate enzyme suspension, pH 6.5, 37°C, 1 h, both type 1 and type 2 isozymes
[4] = rat prostatic testosterone 5α-reductase

Row | Compound | melting point | pIC50 [1, 2] | pIC50 [1, 3] | 5α-reductase inhibitory activity in words [1, 4]
1 | CC(=NO)[C@H]1CC[C@H]2[C@@H]3C=CC4=CC(=O)[C@@H]5O[C@@H]5[C@]4(C)[C@H]3CC[C@]12C | 228 to 230 °C |  |  | 
2 | CC(=NO)[C@H]1CC[C@H]2[C@@H]3[C@@H]4O[C@@H]4C4=CC(=O)C=C[C@]4(C)[C@H]3CC[C@]12C | 245 to 247 °C |  |  | 
3 | CC(=O)[C@H]1CC[C@H]2[C@@H]3CCC4=CC(=O)CC[C@]4(C)[C@H]3CC[C@]12C [Compound 1, 4-pregnene-3,20-dione, reference compound] |  | 8.19 | 8.19 | 
4 | CC(=O)[C@H]1CCC2C3CCC(=O)[C@](C)(CCC(=O)O)C3CC[C@@]21C (stereo partly shown) [Compound 2, 5,20-Dioxo-A-nor-3,5-secopregnane-3-oic acid] | 176 to 178 °C |  | < 5.00 | only a weak inhibitory activity
5 | CC(=O)[C@H]1CC[C@H]2[C@@H]3CC=C4NC(=O)CC[C@]4(C)[C@H]3CC[C@]12C [Compound 3, 4-Aza-5-pregnene-3,20-dione] | 158 to 160 °C |  | 5.64 | moderate inhibition
6 | CC(=NO)[C@H]1CC[C@H]2[C@@H]3CC=C4NC(=O)CC[C@]4(C)[C@H]3CC[C@]12C [Compound 4, 4-Aza-5-pregnene-3,20-dione-20-oxime] | 208 to 210 °C | 7.59 | 7.59 | potent inhibition
7 | CC(=O)[C@H]1CC[C@H]2[C@@H]3CCC4NC(=O)CC[C@]4(C)[C@H]3CC[C@]12C (stereo partly shown) [Compound 5, 4-Aza-pregnane-3,20-dione] |  |  | 5.21 | potent inhibition
8 | CC(=NO)[C@H]1CC[C@H]2[C@@H]3CCC4NC(=O)CC[C@]4(C)[C@H]3CC[C@]12C (stereo partly shown) [Compound 6, 4-Aza-pregnane-3,20-dione-20-oxime] | 194 to 196 °C | 8.00 | 8.00 | potent inhibition
9 | CC(=O)[C@H]1CC[C@H]2[C@@H]3CCC4NC(=O)C=C[C@]4(C)[C@H]3CC[C@]12C (stereo partly shown) [Compound 7, 4-Aza-1-pregnene-3,20-dione] | 174 to 176 °C |  | 7.85 | potent inhibition
10 | CC(=NO)[C@H]1CC[C@H]2[C@@H]3CCC4NC(=O)C=C[C@]4(C)[C@H]3CC[C@]12C (stereo partly shown) [Compound 8, 4-Aza-1-pregnene-3,20-dione-20-oxime] | 235 to 237 °C | 7.96 | 7.96 | potent inhibition
11 | CC(=O)[C@H]1CC[C@H]2[C@@H]3C=CC4=CC(=O)C=C[C@]4(C)[C@H]3CC[C@]12C [Compound 9, 1,4,6-Pregnatriene-3,20-dione] | 144 to 146 °C |  | 6.12 | moderate inhibition
12 | CC(=O)[C@H]1CC[C@H]2[C@@H]3C=CC4=CC(=O)[C@@H]5O[C@@H]5[C@]4(C)[C@H]3CC[C@]12C [Compound 10, 1α,2α-Epoxypregna-4,6-diene-3,20-dione] | 183 to 185 °C |  | < 5.00 | no inhibitory activity
13 | CC(=O)[C@H]1CC[C@H]2[C@@H]3[C@@H]4O[C@@H]4C4=CC(=O)C=C[C@]4(C)[C@H]3CC[C@]12C [Compound 13, 6α,7α-Epoxypregna-1,4-diene-3,20-dione] | 206 to 208 °C |  | < 5.00 | no inhibitory activity
14 | CC(=O)O[C@H]1CC[C@@]2(C)C(=CCC3C2CC[C@@]2(C)C3CC[C@@H]2C(C)=O)C1 (stereo partly drawn) [Compound 15, 3β-Acetoxypregnenolone] |  |  | < 5.00 | no inhibition
15 | CC(=O)O[C@H]1CC[C@@]2(C)C(=CCC3C2CC[C@@]2(C)C3CC[C@@H]2C(C)=NO)C1 (stereo partly shown) [Compound 16] |  |  | < 5.00 | no inhibition
16 | CC(=O)C1CCC2C3CC4OC45CC(O)CCC5(C)C3CCC12C (stereo not shown) [Compound 17] |  |  | < 5.00 | no inhibition
17 | CC(=NO)C1CCC2C3CC4OC45CC(O)CCC5(C)C3CCC12C (stereo not shown) [Compound 18] |  |  | < 5.00 | no inhibition
18 | CC(=NO)[C@H]1CCC2C3CCC4=CC(=O)CC[C@]4(C)C3CC[C@@]21C (stereo partly shown) [Compound 20] |  |  | 7.85 | 
19 | CC(=NO)[C@H]1CCC2C3CCC(=O)[C@](C)(CCC(=O)O)C3CC[C@@]21C (stereo partly shown) [Compound 21] |  |  | 5.68 | 
20 | CC(=NO)[C@H]1CCC2C3CCC4=CC(=O)C=C[C@]4(C)C3CC[C@@]21C (stereo partly shown) [Compound 22, 1,4-Pregnadiene-20-oxime] |  |  | 6.85 | 
21 | CC(C)(C)NC(=O)[C@H]1CC[C@H]2[C@@H]3CC[C@H]4NC(=O)C=C[C@]4(C)[C@H]3CC[C@]12C [Finasteride, finasteride, reference compound] |  | 8.92 | 8.92 | 
